Source: patent publication US12570647B2 (Saint Louis University, priority 2021, dated 2026)
Values after ≈ are worked out from the molar mass of the structure shown.

The compounds below were run on S. aureus ATCC25923 (assay: S. aureus MIC80 determination, broth microdilution (CLSI) in CAMHB). Details: Staphylococcus aureus, ATCC25923; Table 1; S. aureus ATCC 25923; growth inhibition ≥80% vs vehicle, 16-24 h; read-out: ATCC 25923 MIC80.
Format: cell-based
Procedure: S. Aureus MIC80 determinations in S. aureus ATCC25923 or in multidrug-resistant strains AR215, AR217 and AR255. MIC80's were determined by the broth microdilution method recommended by the Clinical and Laboratory Standards Institute (CLSI) in Cation-adjusted Mueller-Hinton broth (CAMHB). (Cao et al., 2018). In the preliminary screening, three compound concentrations were used: 5.8, 20.4, and 71.4 μM; for quantitative MIC80 measurements, a 1.5-fold dilution series of the compounds was prepared in CAMHB. Overnight bacterial culture was added to the diluted compounds in a 96-well plate after adjusting the bacterial concentration to achieve a 5×10^5 CFU/mL final concentration. After 16-24 h incubation at 35±2° C., the plates were read at 600 nm in a microplate reader. The MIC80 was defined as the concentration of an antibacterial agent that inhibited bacteria growth ≥80% compared to vehicle-treated control cultures. All values were determined at least twice independently, and the average number is reported.
With `Cc1cc(Cl)cc2sc(NCCCn3ccnc3)nc12` [Example 1, N-(3-(1H-imidazol-1-yl)propyl)-6-chloro-4-methylbenzo[d]thiazol-2-amine] the MIC80 was 19.8 µM (≈ 6.08 µg/mL).
`Cc1cc(Cl)cc2sc(N(CCCn3ccnc3)C(=O)c3ccco3)nc12` [Example 2, N-(3-(1H-imidazol-1-yl)propyl)-N-(6-chloro-4-methylbenzo[d]thiazol-2-yl)furan-2-carboxamide] was tested, and the MIC80 was 1.7 µM (≈ 0.682 µg/mL).
`Cc1cc(Cl)cc2sc(N(CCCn3ccnc3)C(=O)c3ccccc3)nc12` [Example 3, N-(3-(1H-imidazol-1-yl)propyl)-N-(6-chloro-4-methylbenzo[d]thiazol-2-yl)benzamide] was tested, and the MIC80 was 3.9 µM (≈ 1.6 µg/mL).
`Cc1cc(Cl)cc2sc(N(CCCn3ccnc3)C(=O)c3ccccn3)nc12` [Example 5, N-(3-(1H-imidazol-1-yl)propyl)-N-(6-chloro-4-methylbenzo[d]thiazol-2-yl)picolinamide] showed an MIC80 of 8.8 µM (≈ 3.62 µg/mL).
Work on `Cc1cc(Cl)cc2sc(N(CCCn3ccnc3)C(=O)/C=C/c3ccco3)nc12` [Example 6, (E)-N-(3-(1H-imidazol-1-yl)propyl)-N-(6-chloro-4-methylbenzo[d]thiazol-2-yl)-3-(furan-2-yl)acrylamide] yielded an MIC80 of 2.6 µM (≈ 1.11 µg/mL).
In the case of `Cc1cc(Cl)cc2sc(N(CCCn3ccnc3)C(=O)c3ccoc3)nc12` [Example 7, N-(3-(1H-imidazol-1-yl)propyl)-N-(6-chloro-4-methylbenzo[d]thiazol-2-yl)furan-3-carboxamide], the MIC80 is reported as 2.6 µM (≈ 1.04 µg/mL).
`Cc1cc(Cl)cc2sc(N(CCCn3ccnc3)C(=O)C3CCCC3)nc12` [Example 8, N-(3-(1H-imidazol-1-yl)propyl)-N-(6-chloro-4-methylbenzo[d]thiazol-2-yl)cyclopentanecarboxamide] gave an MIC80 of 3.9 µM (≈ 1.57 µg/mL).
`Cc1ccc(C(=O)N(CCCn2ccnc2)c2nc3c(C)cc(Cl)cc3s2)s1` [Example 9, N-(3-(1H-imidazol-1-yl)propyl)-N-(6-chloro-4-methylbenzo[d]thiazol-2-yl)-5-methylthiophene-2-carboxamide] showed an MIC80 of 2.6 µM (≈ 1.12 µg/mL).
`Cc1cc(Cl)cc2sc(N(CCCn3ccnc3)C(=O)C3CC3)nc12` [Example 10, N-(3-(1H-imidazol-1-yl)propyl)-N-(6-chloro-4-methylbenzo[d]thiazol-2-yl)cyclopropanecarboxamide] showed an MIC80 of 1.7 µM (≈ 0.637 µg/mL).
With `Cc1cc(Cl)cc2sc(N(CCCn3ccnc3)C(=O)C(C)C)nc12` [Example 11, N-(3-(1H-imidazol-1-yl)propyl)-N-(6-chloro-4-methylbenzo[d]thiazol-2-yl)isobutyramide] the MIC80 was 2.7 µM (≈ 1.02 µg/mL).
In the case of `Cc1cc(Cl)cc2sc(N(CCCn3ccnc3)C(=O)c3ccc(C(=O)O)cc3)nc12` [Example 12, 4-((3-(1H-imidazol-1-yl)propyl)(6-chloro-4-methylbenzo[d]thiazol-2-yl)carbamoyl)benzoic acid], the MIC80 is reported as over 100 µM.
In the case of `Cc1cc(Cl)cc2sc(N(CCCn3ccnc3)C(=O)c3cc4ccccc4o3)nc12` [Example 13, N-(3-(1H-imidazol-1-yl)propyl)-N-(6-chloro-4-methylbenzo[d]thiazol-2-yl)benzofuran-2-carboxamide], the MIC80 is reported as 8.8 µM (≈ 3.97 µg/mL).
Work on `Cc1cc(Cl)cc2sc(N(CCCn3ccnc3)C(=O)C3CCCO3)nc12` (stereo not drawn) [Example 14, N-(3-(1H-imidazol-1-yl)propyl)-N-(6-chloro-4-methylbenzo[d]thiazol-2-yl)tetrahydrofuran-2-carboxamide] yielded an MIC80 of 29.6 µM (≈ 12 µg/mL).
Compound `Cc1cc(C(=O)N(CCCn2ccnc2)c2nc3c(C)cc(Cl)cc3s2)oc1C` [Example 16, N-(3-(1H-imidazol-1-yl)propyl)-N-(6-chloro-4-methylbenzo[d]thiazol-2-yl)-4,5-dimethylfuran-2-carboxamide] has an MIC80 of 3.9 µM (≈ 1.67 µg/mL).
Compound `Cc1cc(Cl)cc2sc(N(CCCn3ccnc3)C(=O)C3CCC3)nc12` [Example 17, N-(3-(1H-imidazol-1-yl)propyl)-N-(6-chloro-4-methylbenzo[d]thiazol-2-yl)cyclobutanecarboxamide] has an MIC80 of 2.6 µM (≈ 1.01 µg/mL).
With `Cc1cc(Cl)cc2sc(N(CCCn3ccnc3)C(=O)C3(C)CC3)nc12` [Example 18, N-(3-(1H-imidazol-1-yl)propyl)-N-(6-chloro-4-methylbenzo[d]thiazol-2-yl)-1-methylcyclopropanecarboxamide] the MIC80 was 5.9 µM (≈ 2.29 µg/mL).
In the case of `Cc1cc(Cl)cc2sc(N(CCCn3ccnc3)C(=O)c3ccc[nH]3)nc12` [Example 19, N-(3-(1H-imidazol-1-yl)propyl)-N-(6-chloro-4-methylbenzo[d]thiazol-2-yl)-1H-pyrrole-2-carboxamide], the MIC80 is reported as 1.3 µM (≈ 0.52 µg/mL).
In the case of `CSCc1ccc(C(=O)N(CCCn2ccnc2)c2nc3c(C)cc(Cl)cc3s2)o1` [Example 20, N-(3-(1H-imidazol-1-yl)propyl)-N-(6-chloro-4-methylbenzo[d]thiazol-2-yl)-5-((methylthio)methyl)furan-2-carboxamide], the MIC80 is reported as 2.9 µM (≈ 1.34 µg/mL).
Compound `Cc1cc(Cl)cc2sc(N(CCCn3ccnc3)C(=O)[C@H](Cc3ccccc3)NC(=O)OC(C)(C)C)nc12` [Example 21, (S)-tert-butyl (1-((3-(1H-imidazol-1-yl)propyl)(6-chloro-4-methylbenzo[d]thiazol-2-yl)amino)-1-oxo-3-phenylpropan-2-yl)carbamate] has an MIC80 of 14.8 µM (≈ 8.2 µg/mL).
`Cc1cc(Cl)cc2sc(N(CCCn3ccnc3)S(=O)(=O)c3cccs3)nc12` [Example 22, N-(3-(1H-imidazol-1-yl)propyl)-N-(6-chloro-4-methylbenzo[d]thiazol-2-yl)thiophene-2-sulfonamide] showed an MIC80 of 3.9 µM (≈ 1.77 µg/mL).
With `Cc1cc(Cl)cc2sc(N(CCCn3ccnc3)S(=O)(=O)c3ccccc3)nc12` [Example 23, N-(3-(1H-imidazol-1-yl)propyl)-N-(6-chloro-4-methylbenzo[d]thiazol-2-yl)benzenesulfonamide] the MIC80 was 3.9 µM (≈ 1.74 µg/mL).
In the case of `Cc1cc(Cl)cc2sc(N(CCCn3ccnc3)S(=O)(=O)C3CCCCC3)nc12` [Example 24, N-(3-(1H-imidazol-1-yl)propyl)-N-(6-chloro-4-methylbenzo[d]thiazol-2-yl)cyclohexanesulfonamide], the MIC80 is reported as 13.2 µM (≈ 5.98 µg/mL).
`Cc1cc(Cl)cc2sc(N(CCCn3ccnc3)S(=O)(=O)c3ccco3)nc12` [Example 25, N-(3-(1H-imidazol-1-yl)propyl)-N-(6-chloro-4-methylbenzo[d]thiazol-2-yl)furan-2-sulfonamide] was tested, and the MIC80 was 8.8 µM (≈ 3.85 µg/mL).
Work on `Cc1cc(Cl)cc2sc(N(CCCn3ccnc3)Cc3ccccc3)nc12` [Example 26, N-(3-(1H-imidazol-1-yl)propyl)-N-benzyl-6-chloro-4-methylbenzo[d]thiazol-2-amine] yielded an MIC80 of 3.9 µM (≈ 1.55 µg/mL).
Work on `Cc1cc(Cl)cc2sc(N(CCCn3ccnc3)CC3CC3)nc12` [Example 27, N-(3-(1H-imidazol-1-yl)propyl)-6-chloro-N-(cyclopropylmethyl)-4-methylbenzo[d]thiazol-2-amine] yielded an MIC80 of 6.6 µM (≈ 2.38 µg/mL).
Compound `Cc1cc(Cl)cc2sc(N(CCCn3ccnc3)CCCn3ccnc3)nc12` [Example 28, N,N-bis(3-(1H-imidazol-1-yl)propyl)-6-chloro-4-methylbenzo[d]thiazol-2-amine] has an MIC80 of 5.9 µM (≈ 2.45 µg/mL).
`Cc1cc(Cl)cc2sc(N(CCCn3cc[n+](C)c3)C(=O)c3ccco3)nc12` [Example 29, 1-(3-(N-(6-chloro-4-methylbenzo[d]thiazol-2-yl)furan-2-carboxamido)propyl)-3-methyl-1H-imidazol-3-ium] was tested, and the MIC80 was 13.2 µM.
With `Cc1cc(Cl)cc2sc(N3CCNCC3)nc12` [Example 30, 6-chloro-4-methyl-2-(piperazin-1-yl)-1,3-benzothiazole] the MIC80 was 100 µM (≈ 26.8 µg/mL).
`CC(=O)N1CCN(c2nc3c(C)cc(Cl)cc3s2)CC1` [Example 31, 1-(4-(6-chloro-4-methylbenzo[d]thiazol-2-yl)piperazin-1-yl)ethan-1-one] gave an MIC80 of over 100 µM.
`Cc1cc(Cl)cc2sc(N3CCC(O)CC3)nc12` [Example 32, 1-(6-chloro-4-methylbenzo[d]thiazol-2-yl)piperidin-4-ol] gave an MIC80 of over 100 µM.
`Cc1cc(Cl)cc2sc(N3CCC(N)CC3)nc12` [Example 33, 1-(6-chloro-4-methyl-1,3-benzothiazol-2-yl)piperidin-4-amine] was tested, and the MIC80 was 66.7 µM (≈ 18.8 µg/mL).
`Cc1cc(Cl)cc2sc(N3CCC(CN)CC3)nc12` [Example 34] was tested, and the MIC80 was 44.4 µM (≈ 13.1 µg/mL).
For `Cc1cc(Cl)cc2sc(N3CCCC(Cn4ccnc4)C3)nc12` (stereo not drawn) [Example 35, 6-chloro-2-{3-[(1H-imidazol-1-yl)methyl]piperidin-1-yl}-4-methyl-1,3-benzothiazole], the MIC80 was 66.7 µM (≈ 23.1 µg/mL).
`Cc1cc(Cl)cc2sc(N(CCCn3ccnc3)C(=O)CN)nc12` [Example 36, 2-amino-N-(6-chloro-4-methyl-1,3-benzothiazol-2-yl)-N-[3-(1H-imidazol-1-yl)propyl]acetamide] showed an MIC80 of over 100 µM.
`Cc1cc(Cl)cc2sc(N(CC3CCNCC3)C(=O)C3CCC3)nc12` [Example 37, N-(6-chloro-4-methylbenzo[d]thiazol-2-yl)-N-(piperidin-4-ylmethyl)cyclobutanecarboxamide] showed an MIC80 of 19.8 µM (≈ 7.48 µg/mL).
In the case of `Cc1cc(Cl)cc2sc(N(CC3CCN(C)CC3)C(=O)C3CCC3)nc12` [Example 38, N-(6-chloro-4-methyl-1,3-benzothiazol-2-yl)-N-[(1-methylpiperidin-4-yl)methyl]cyclobutanecarboxamide], the MIC80 is reported as over 100 µM.
`Cc1cc(Cl)cc2sc(N(CC3CCNCC3)C(=O)C3CC3)nc12` [Example 39] showed an MIC80 of 19.8 µM (≈ 7.21 µg/mL).
`Cc1cc(Cl)cc2sc(N(CC3CCNC3)C(=O)C3CCC3)nc12` (stereo not drawn) [Example 40, N-(6-chloro-4-methyl-1,3-benzothiazol-2-yl)-N-[(pyrrolidin-3-yl)methyl]cyclobutanecarboxamide] was tested, and the MIC80 was 29.6 µM (≈ 10.8 µg/mL).
`Cc1cc(Cl)cc2sc(N(CC3CCNC3)C(=O)C3CC3)nc12` (stereo not drawn) [Example 41, N-(6-chloro-4-methylbenzo[d]thiazol-2-yl)-N-(pyrrolidin-3-ylmethyl)cyclopropanecarboxamide] gave an MIC80 of 44.4 µM (≈ 15.5 µg/mL).
